Source: paper PMC9234962, “Optimization of Peptide Linker-Based Fluorescent Ligands for the Histamine H1 Receptor” (Journal of Medicinal Chemistry, 2022)
Like-named read-outs stand apart in the source and are kept apart here. Square brackets hold non-standard residues; d marks the D form. Peptide text beside a SMILES is read from it. * marks the point of attachment. Propanoyl(3-Pip(4-O-2-BnPh)) = O=C(CCN1CCC(Oc2ccccc2Cc2ccccc2)CC1)*; X3 = Cc1cc(C)n2c1C=C1C=CC(/C=C/c3ccc(OCC(=O)*)cc3)=[N+]1[B-]2(F)F; BODIPY(FL) = CC1=CC(C)=[N+]2C1=Cc1ccc(CCC(=O)*)n1[B-]2(F)F; X2 = O=C(CCC1=[N+]2C(=Cc3ccc(-c4cccs4)n3[B-]2(F)F)C=C1)*; βAla = NCCC(=O)O

Columns and labels:
human H1R = biological target: T1, human H1R (Homo sapiens, UniProt P35367); assay: Ca2+ mobilization assay on human H1R-expressing CHO cells; assay type: cell-based; conditions: Gaddum equation, shift in histamine EC25 with 1 μM antagonist
T1 construct: expressed in transfected cells; host or cells: CHO cells
Protocol: CHO cells expressing H1R were grown to confluence in black-walled, clear-bottom 96-well plates. On the day of the experiment, media were replaced with 100 μL of HBSS containing […], 2.3 μM Fluo-4AM (Invitrogen), 0.023% Pluronic F-127, 0.5 mM Brilliant Black BN, and 1 μM required fluorescent ligand and the plates incubated for 1 h at 37 °C in the dark. The plates were then placed in the multi-well fluorometric imaging plate reader FlexStation3 (Molecular Devices, Sunnyvale, CA) and HBSS only or HBSS containing the required concentration of histamine was added after 15 s. Fluo-4 fluorescence was measured at 520 nm (excitation at 485 nm) every 1.52 s for 200 s. For each well, the peak maximum–minimum–maximum change in fluorescence value was taken and plotted against concentration of histamine to give a dose–response curve.
Estimated affinity values (pKB) were calculated from the shift in agonist concentration–response curves in the presence of the fluorescent antagonists using the Gaddum equation (7): [drawing 10] 7 where DR (dose ratio) is the ratio of the agonist concentration required to stimulate an identical response in the presence and absence of antagonist, [B]. DR was determined from the EC25 value as there was a decrease in observed maximal efficacy of histamine in the presence of all 10 fluorescent antagonists.

Nluc-H1R = Nluc-H1R (Homo sapiens, UniProt P35367); assay: NanoBRET saturation binding assay on Nluc-H1R expressing HEK293T cells; set-up: expressed in transfected cells; conditions: saturation binding curves, whole HEK293T cells; for pKD: non-specific with 10 μM mepyramine, mean ± SEM
Description: Total and non-specific saturation binding curves from NanoBRET saturation binding assay were fitted simultaneously using eq 1: [drawing 4] 1 where Bmax is the maximal specific binding, [B] is the concentration of fluorescent ligand in nM, KD is the equilibrium dissociation constant in nM, M is the slope of the non-specific component, and C is the intercept with the Y axis.

[1] = mean ± SEM, four experiments, read-out: pKB (converted)

Sequence of Nluc-H1R (P35367 whole entry): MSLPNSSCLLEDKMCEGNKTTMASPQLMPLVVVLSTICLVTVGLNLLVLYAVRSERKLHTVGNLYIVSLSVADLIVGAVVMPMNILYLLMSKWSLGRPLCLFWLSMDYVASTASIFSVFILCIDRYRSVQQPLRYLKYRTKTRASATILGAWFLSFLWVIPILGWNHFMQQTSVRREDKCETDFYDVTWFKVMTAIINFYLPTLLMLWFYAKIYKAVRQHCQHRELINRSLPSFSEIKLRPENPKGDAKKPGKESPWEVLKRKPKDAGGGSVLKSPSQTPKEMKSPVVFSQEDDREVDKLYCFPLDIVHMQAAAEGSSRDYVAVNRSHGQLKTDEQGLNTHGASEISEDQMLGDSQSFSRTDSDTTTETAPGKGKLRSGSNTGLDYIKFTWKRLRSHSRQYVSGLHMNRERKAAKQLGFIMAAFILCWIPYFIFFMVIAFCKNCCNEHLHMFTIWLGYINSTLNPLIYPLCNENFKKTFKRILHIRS
T1 sequence (P35367 whole entry): as above

SMILES | Kb (human H1R; read-out: KB (converted)) | Kd (Nluc-H1R) | pKD (Nluc-H1R) | Kb (human H1R; [1])
CC(C)[C@H](NC(=O)CCN1CCC(Oc2ccccc2Cc2ccccc2)CC1)C(=O)N[C@@H](CO)C(=O)N[C@@H](CC(N)=O)C(=O)NCCC(=O)N[C@@H](CCCCNC(=O)CCC1=[N+]2C(=Cc3ccc(-c4cccs4)n3[B-]2(F)F)C=C1)C(N)=O [Compound 38c, (S)-N^1-(3-(((S)-1-Amino-6-(3-(5,5-difluoro-7-(thiophen-2-yl)-5H-5λ^4,6λ^4-dipyrrolo[1,2-c:2’,1’-f][1,3,2]diazaborinin-3-yl)propanamido)-1-oxohexan-2-yl)amino)-3-oxopropyl)-2-((S)-2-((S)-2-(3-(4-(2-benzylphenoxy)piperidin-1-yl)propanamido)-3-methylbutanamido)-3-hydroxypropanamido)succinamide] ({Propanoyl(3-Pip(4-O-2-BnPh))}-VSN[βAla]K(X2)-NH2) | 302 nM | 209 nM | 6.68 ± 0.10 | –
Cc1cc(C)n2c1C=C1C=CC(/C=C/c3ccc(OCC(=O)NCCCC[C@H](NC(=O)CCNC(=O)[C@H](CC(N)=O)NC(=O)[C@H](CO)NC(=O)[C@@H](NC(=O)CCN4CCC(Oc5ccccc5Cc5ccccc5)CC4)C(C)C)C(N)=O)cc3)=[N+]1[B-]2(F)F [Compound 38b, (S)-N^1-(3-(((S)-1-Amino-6-(2-(4-((E)-2-(5,5-difluoro-7,9-dimethyl-5H-5λ^4,6λ^4-dipyrrolo[1,2-c:2’,1’-f][1,3,2]diazaborinin-3-yl)vinyl)phenoxy)acetamido)-1-oxohexan-2-yl)amino)-3-oxopropyl)-2-((S)-2-((S)-2-(3-(4-(2-benzylphenoxy)piperidin-1-yl)propanamido)-3-methylbutanamido)-3-hydroxypropanamido)succinamide] ({Propanoyl(3-Pip(4-O-2-BnPh))}-VSN[βAla]K(X3)-NH2) | – | 66 nM | 7.18 ± 0.11 | 110 nM
Cc1cc(C)n2c1C=C1C=CC(CCC(=O)NCCCC[C@H](NC(=O)CCNC(=O)[C@H](CC(N)=O)NC(=O)[C@H](CO)NC(=O)[C@@H](NC(=O)CCN3CCC(Oc4ccccc4Cc4ccccc4)CC3)C(C)C)C(N)=O)=[N+]1[B-]2(F)F [Compound 38d, (S)-N^1-(3-(((S)-1-Amino-6-(3-(5,5-difluoro-7,9-dimethyl-5H-4λ^4,5λ^4-dipyrrolo[1,2-c:2’,1’-f][1,3,2]diazaborinin-3-yl)propanamido)-1-oxohexan-2-yl)amino)-3-oxopropyl)-2-((S)-2-((S)-2-(3-(4-(2-benzylphenoxy)piperidin-1-yl)propanamido)-3-methylbutanamido)-3-hydroxypropanamido)succinamide] ({Propanoyl(3-Pip(4-O-2-BnPh))}-VSN[βAla]K(BODIPY(FL))-NH2) | 112 nM | 1290 nM | 5.89 ± 0.10 | –
CC(C)[C@H](NC(=O)CCN1CCC(Oc2ccccc2Cc2ccccc2)CC1)C(=O)N[C@@H](CO)C(=O)N[C@@H](CC(N)=O)C(=O)NCCC(=O)N[C@@H](CCCCNC(=O)CCCCC[N+]1=C(/C=C/C=C/C=C2/N(C)c3ccc(S(=O)(=O)[O-])cc3C2(C)C)C(C)(C)c2cc(S(=O)(=O)O)ccc21)C(N)=O [Compound 38f, 1-((5S,8S,11S,18S)-11-(2-Amino-2-oxoethyl)-1-(4-(2-benzylphenoxy)piperidin-1-yl)-18-carbamoyl-8-(hydroxymethyl)-5-isopropyl-3,6,9,12,16,24-hexaoxo-4,7,10,13,17,23-hexaazanonacosan-29-yl)-3,3-dimethyl-2-((1E,3E)-5-((E)-1,3,3-trimethyl-5-sulfonatoindolin-2-ylidene)penta-1,3-dien-1-yl)-3H-indol-1-ium-5-sulfonate] | 4680 nM | 2190 nM | 5.66 ± 0.02 | –

Results, then the compound that gave them:

Kb (human H1R; read-out: KB (converted)) | Kd (Nluc-H1R) | pKD (Nluc-H1R) | Kb (human H1R; [1]) | SMILES
813 nM | 2190 nM | 5.66 ± 0.06 | – | C[C@H](NC(=O)[C@H](C)NC(=O)[C@H](Cc1ccccc1)NC(=O)CCN1CCC(Oc2ccccc2Cc2ccccc2)CC1)C(=O)NCCC(=O)N[C@@H](CCCCNC(=O)CCCCC[N+]1=C(/C=C/C=C/C=C2/N(C)c3ccc(S(=O)(=O)[O-])cc3C2(C)C)C(C)(C)c2cc(S(=O)(=O)O)ccc21)C(N)=O [Compound 39f, 1-((5S,8S,11S,18S)-5-Benzyl-1-(4-(2-benzylphenoxy)piperidin-1-yl)-18-carbamoyl-8,11-dimethyl-3,6,9,12,16,24-hexaoxo-4,7,10,13,17,23-hexaazanonacosan-29-yl)-3,3-dimethyl-2-((1E,3E)-5-((E)-1,3,3-trimethyl-5-sulfonatoindolin-2-ylidene)penta-1,3-dien-1-yl)-3H-indol-1-ium-5-sulfonate]
– | 1440 nM | 5.84 ± 0.13 | 34.7 nM | Cc1cc(C)n2c1C=C1C=CC(CCC(=O)NCCCC[C@H](NC(=O)CCNC(=O)[C@H](C)NC(=O)[C@H](C)NC(=O)[C@H](Cc3ccccc3)NC(=O)CCN3CCC(Oc4ccccc4Cc4ccccc4)CC3)C(N)=O)=[N+]1[B-]2(F)F [Compound 39d, (S)-2-((6S,9S,12S)-12-Benzyl-16-(4-(2-benzylphenoxy)piperidin-1-yl)-6,9-dimethyl-5,8,11,14-tetraoxo-4,7,10,13-tetraazahexadecanamido)-6-(3-(5,5-difluoro-7,9-dimethyl-5H-4λ^4,5λ^4-dipyrrolo[1,2-c:2’,1’-f][1,3,2]diazaborinin-3-yl)propan-amido)hexanamide] ({Propanoyl(3-Pip(4-O-2-BnPh))}-FAA[βAla]K(BODIPY(FL))-NH2)
102 nM | 44 nM | 7.36 ± 0.03 | – | Cc1cc(C)n2c1C=C1C=CC(/C=C/c3ccc(OCC(=O)NCCCC[C@H](NC(=O)CCNC(=O)[C@H](C)NC(=O)[C@H](C)NC(=O)[C@H](Cc4ccccc4)NC(=O)CCN4CCC(Oc5ccccc5Cc5ccccc5)CC4)C(N)=O)cc3)=[N+]1[B-]2(F)F [Compound 39b, (S)-2-((6S,9S,12S)-12-Benzyl-16-(4-(2-benzylphenoxy)piperidin-1-yl)-6,9-dimethyl-5,8,11,14-tetraoxo-4,7,10,13-tetraazahexadecanamido)-6-(2-(4-((E)-2-(5,5-difluoro-7,9-dimethyl-5H-5λ^4,6λ^4-dipyrrolo[1,2-c:2’,1’-f][1,3,2]diazaborinin-3-yl)vinyl)phenoxy)acetamido)hexanamide] ({Propanoyl(3-Pip(4-O-2-BnPh))}-FAA[βAla]K(X3)-NH2)
363 nM | 724 nM | 6.14 ± 0.06 | – | C[C@H](NC(=O)[C@H](C)NC(=O)[C@H](Cc1ccccc1)NC(=O)CCN1CCC(Oc2ccccc2Cc2ccccc2)CC1)C(=O)NCCC(=O)N[C@@H](CCCCNC(=O)CCC1=[N+]2C(=Cc3ccc(-c4cccs4)n3[B-]2(F)F)C=C1)C(N)=O [Compound 39c, (S)-2-((6S,9S,12S)-12-Benzyl-16-(4-(2-benzylphenoxy)piperidin-1-yl)-6,9-dimethyl-5,8,11,14-tetraoxo-4,7,10,13-tetraazahexadecanamido)-6-(3-(5,5-difluoro-7-(thiophen-2-yl)-5H-5λ^4,6λ^4-dipyrrolo[1,2-c:2’,1’-f][1,3,2]diazaborinin-3-yl)propanamido)hexanamide] ({Propanoyl(3-Pip(4-O-2-BnPh))}-FAA[βAla]K(X2)-NH2)
